Measurements published in ChEMBL document CHEMBL1201862, “PubChem BioAssay data set” (2004).
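Tested at 5 concentrations; 48 h exposure; 96-well plates; endpoints linearly interpolated, else capped at highest concentration. GI50 is the concentration that inhibits growth by half.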 Calls of active or inactive are those of the source. No stated cut-off is given here; in the data, active = GI50 up to about 1.1 µM and inactive = higher.

Columns and labels:
Assay in all cases: growth of human tumour cells (NCI), 48 h
[1] = system: SK-MEL-2
[2] = system: SN12C
[3] = system: CCRF-CEM
[4] = system: CAKI-1
[5] = system: SNB-19
[6] = system: SF-539
[7] = system: OVCAR-4
[8] = system: COLO 205
[9] = system: U-251
[10] = system: UO-31
[11] = system: SW-620
[12] = system: UACC-257
[13] = system: NCI-H522
[14] = system: NCI-H23
[15] = system: M14
[16] = system: HOP-92
[17] = system: HCT-116
[18] = system: SF-268
[19] = system: NCI-H460

SMILES | GI50 [1] | GI50 [2] | GI50 [3] | GI50 [4] | GI50 [5] | GI50 [6] | GI50 [7] | GI50 [8] | GI50 [9] | GI50 [10] | GI50 [11] | GI50 [12] | GI50 [13] | GI50 [14] | GI50 [15] | GI50 [16] | GI50 [17] | GI50 [18] | GI50 [19]
CCOC(=O)c1ccc(/N=N\c2ccc(N(CCC#N)CCC#N)cc2C)cc1 | > 100 µM (inactive) | > 100 µM (inactive) | > 100 µM (inactive) | > 100 µM (inactive) | > 100 µM (inactive) | 72.9 µM (inactive) | > 100 µM (inactive) | > 100 µM (inactive) | > 100 µM (inactive) | > 100 µM (inactive) | > 100 µM (inactive) | > 100 µM (inactive) | 30.4 µM (inactive) | 95.1 µM (inactive) | > 100 µM (inactive) |  |  |  | 
CC1=NN(c2ccccc2)C(=O)C1/N=N/c1ccc(Br)c(C)c1 (centres undefined) | > 100 µM (inactive) | > 100 µM (inactive) | 55.7 µM (inactive) | > 100 µM (inactive) | > 100 µM (inactive) | > 100 µM (inactive) | > 100 µM (inactive) | > 100 µM (inactive) | > 100 µM (inactive) |  | > 100 µM (inactive) | > 100 µM (inactive) |  | > 100 µM (inactive) | > 100 µM (inactive) | > 100 µM (inactive) | > 100 µM (inactive) | > 10 µM (inactive) | > 100 µM (inactive)
Cc1cc([N+](=O)[O-])c(C)c2c1[nH]c1ccc(Cl)cc12 | > 100 µM (inactive) | > 100 µM (inactive) | 23.2 µM (inactive) | > 100 µM (inactive) | > 100 µM (inactive) | > 100 µM (inactive) | > 100 µM (inactive) | 71 µM (inactive) |  | > 100 µM (inactive) | 71.9 µM (inactive) | > 100 µM (inactive) | 18.8 µM (inactive) | > 100 µM (inactive) | > 100 µM (inactive) |  | > 100 µM (inactive) | > 100 µM (inactive) | > 100 µM (inactive)
COC(=O)C(C(=O)OC)C1CCCC(=O)C1 (centres undefined) | < 0.01 µM (active) | > 100 µM (inactive) | > 100 µM (inactive) |  | > 100 µM (inactive) | > 100 µM (inactive) | > 100 µM (inactive) | > 100 µM (inactive) | > 100 µM (inactive) | > 100 µM (inactive) | > 100 µM (inactive) | > 100 µM (inactive) |  | > 100 µM (inactive) | > 100 µM (inactive) | > 100 µM (inactive) | > 100 µM (inactive) | > 100 µM (inactive) | > 100 µM (inactive)
CCCC1C(=O)CCc2c(OC)ccc(OC)c21 (centres undefined) | > 100 µM (inactive) | > 100 µM (inactive) | 72.3 µM (inactive) | > 100 µM (inactive) | 99.8 µM (inactive) | > 100 µM (inactive) | > 100 µM (inactive) | > 100 µM (inactive) | > 100 µM (inactive) | 17.1 µM (inactive) | > 100 µM (inactive) | > 100 µM (inactive) |  | > 100 µM (inactive) | > 100 µM (inactive) |  | 51.9 µM (inactive) | 91.8 µM (inactive) | > 100 µM (inactive)
Cc1cc(=O)n2c(cc3cccccc32)n1 | > 100 µM (inactive) | > 100 µM (inactive) | > 100 µM (inactive) | > 100 µM (inactive) | > 100 µM (inactive) | > 100 µM (inactive) | > 100 µM (inactive) | > 100 µM (inactive) | > 100 µM (inactive) | > 100 µM (inactive) | > 100 µM (inactive) | > 100 µM (inactive) | > 100 µM (inactive) | > 100 µM (inactive) | > 100 µM (inactive) |  |  | > 100 µM (inactive) | > 100 µM (inactive)
Cc1cn(CC2=NCCCN2)c(=O)[nH]c1=O | > 100 µM (inactive) | > 100 µM (inactive) | > 100 µM (inactive) |  | > 100 µM (inactive) |  |  | > 100 µM (inactive) | > 100 µM (inactive) | > 100 µM (inactive) | > 100 µM (inactive) | > 100 µM (inactive) | > 100 µM (inactive) | > 100 µM (inactive) | > 100 µM (inactive) | > 100 µM (inactive) | > 100 µM (inactive) | > 100 µM (inactive) | > 100 µM (inactive)
Cc1ccc(NC(=O)CC/C(CC(=O)C(C)(C)C)=N/Nc2nnc(C)n2N)cc1C | > 100 µM (inactive) | > 100 µM (inactive) | 65 µM (inactive) | > 100 µM (inactive) | > 100 µM (inactive) | > 100 µM (inactive) |  | > 100 µM (inactive) | > 100 µM (inactive) | > 100 µM (inactive) | > 100 µM (inactive) | > 100 µM (inactive) | > 100 µM (inactive) | > 100 µM (inactive) | > 100 µM (inactive) | > 100 µM (inactive) | > 100 µM (inactive) | > 100 µM (inactive) | > 100 µM (inactive)
CC(C)(C)NC(=O)C12C3C4C1C1C2C3C41I (centres undefined) | > 100 µM (inactive) | > 100 µM (inactive) | > 100 µM (inactive) | > 100 µM (inactive) | > 100 µM (inactive) | > 100 µM (inactive) |  | > 100 µM (inactive) | > 100 µM (inactive) | > 100 µM (inactive) | > 100 µM (inactive) | > 100 µM (inactive) | > 100 µM (inactive) | > 100 µM (inactive) |  | 84.1 µM (inactive) | > 100 µM (inactive) |  | > 100 µM (inactive)
COC(=O)c1cc(-c2ccc(OC)c(OC)c2)oc1-c1ccc(OC)c(OC)c1 | 44.9 µM (inactive) | 26.8 µM (inactive) | > 100 µM (inactive) | 54.7 µM (inactive) |  | 21.2 µM (inactive) | 62.5 µM (inactive) | 19.5 µM (inactive) | 30.6 µM (inactive) | 35.6 µM (inactive) | 45.3 µM (inactive) | 37.6 µM (inactive) |  | 26.6 µM (inactive) | 55.8 µM (inactive) | 13.4 µM (inactive) | 32.4 µM (inactive) | 49.7 µM (inactive) | 48.5 µM (inactive)
Cc1cccc(C)c1NC(=O)C(=O)C(C(=O)c1ccccc1-c1ccccc1)C1OC(=O)c2ccccc21 (centres undefined) | 16.2 µM (inactive) |  | 19.4 µM (inactive) |  |  | 14.8 µM (inactive) |  | 19.2 µM (inactive) | 14.2 µM (inactive) | 25.3 µM (inactive) | 26.4 µM (inactive) | 22.6 µM (inactive) | 10.9 µM (inactive) | 14.3 µM (inactive) | 14.7 µM (inactive) | 16.7 µM (inactive) | 14.6 µM (inactive) | 23.7 µM (inactive) | 27.3 µM (inactive)
CCOC(=O)c1ccc(NC(=O)SCCC(=O)O)cc1 | > 100 µM (inactive) | > 100 µM (inactive) | > 100 µM (inactive) |  | > 100 µM (inactive) | > 100 µM (inactive) |  | > 100 µM (inactive) | > 100 µM (inactive) | > 100 µM (inactive) | > 100 µM (inactive) | > 100 µM (inactive) |  | > 100 µM (inactive) | > 100 µM (inactive) |  | > 100 µM (inactive) | 0.426 µM (active) | > 100 µM (inactive)
NC1=NCCC1(c1ccccc1)c1ccccn1 (centres undefined) | > 100 µM (inactive) | > 100 µM (inactive) | > 100 µM (inactive) | > 100 µM (inactive) | > 100 µM (inactive) | > 100 µM (inactive) | > 100 µM (inactive) | > 100 µM (inactive) | > 100 µM (inactive) |  | > 100 µM (inactive) | > 100 µM (inactive) | > 100 µM (inactive) | > 100 µM (inactive) | > 100 µM (inactive) | > 100 µM (inactive) | > 100 µM (inactive) | > 100 µM (inactive) | > 100 µM (inactive)
Cc1cccc(NC2=NC(=O)C(CC(=O)Nc3ccc(Cl)cc3C)S2)c1 (centres undefined) | > 100 µM (inactive) | > 100 µM (inactive) | > 100 µM (inactive) | > 100 µM (inactive) | > 100 µM (inactive) | > 100 µM (inactive) | > 100 µM (inactive) | > 100 µM (inactive) |  | > 100 µM (inactive) | > 100 µM (inactive) | > 100 µM (inactive) | > 100 µM (inactive) | > 100 µM (inactive) | > 100 µM (inactive) |  |  | > 100 µM (inactive) | > 100 µM (inactive)
CCN(CC)CCCNC(=O)Cc1ccccc1Nc1c(Cl)cccc1Cl |  | 14.5 µM (inactive) | 11.7 µM (inactive) |  | 16.9 µM (inactive) | 14.2 µM (inactive) | 15.7 µM (inactive) | 13.7 µM (inactive) | 13 µM (inactive) | 11.2 µM (inactive) | 16.8 µM (inactive) | 4.03 µM (inactive) |  | 17.9 µM (inactive) | 2.82 µM (inactive) |  | 14 µM (inactive) | 16.1 µM (inactive) | 
COc1ccc([C@@H]2C[C@@H]3C(=O)OC(=O)[C@@H]3c3c2c2ccccc2n3C)cc1 | > 100 µM (inactive) | > 100 µM (inactive) | > 100 µM (inactive) | > 100 µM (inactive) | > 100 µM (inactive) | > 100 µM (inactive) | > 100 µM (inactive) | > 100 µM (inactive) |  | > 100 µM (inactive) | > 100 µM (inactive) | > 100 µM (inactive) | > 100 µM (inactive) | > 100 µM (inactive) | > 100 µM (inactive) | > 100 µM (inactive) | > 100 µM (inactive) | > 100 µM (inactive) | 
Cc1cc2c(cc1O)CC[C@@H]1[C@@H]2CC[C@]2(C)[C@@H](O)CC[C@@H]12 | 5.48 µM (inactive) | 13.3 µM (inactive) | 4.32 µM (inactive) | 16.9 µM (inactive) | 12.6 µM (inactive) |  | 12.4 µM (inactive) | 17.6 µM (inactive) | 5.73 µM (inactive) | 14.8 µM (inactive) | 4.28 µM (inactive) | 15.3 µM (inactive) | 7.45 µM (inactive) | 13.6 µM (inactive) | 7.24 µM (inactive) | 14.9 µM (inactive) |  | 15.5 µM (inactive) | 8.65 µM (inactive)
